Laboratory results: patent US11634425B2, “Pharmaceutical compounds” (priority 2019, dated 2023)
Read-outs that look alike come from different tables or passages of the source.

Columns and labels:
in vitro = in vitro ADME; conditions: microsomes, pH 7.4, 1 μM compound, 0.5 mg/mL protein, read-out: Liver Microsomal Stability t1/2
Method: Compounds were subjected to the following assays to investigate liver microsomal stability and hepatocyte stability.
Microsomal Incubation: Experimental Procedure
Pooled liver microsomes were purchased from a reputable commercial supplier and stored at −80° C. prior to use. Microsomes (final protein concentration 0.5 mg/mL), 0.1 M phosphate buffer pH 7.4 and test compound (final substrate concentration 1 μM; final DMSO concentration 0.25%) were pre-incubated at 37° C. prior to the addition of NADPH (final concentration 1 mM) to initiate the reaction. The final incubation volume was 50 μL. A control incubation was included for each compound tested where 0.1 M phosphate buffer pH 7.4 was added instead of NADPH (minus NADPH). Two control compounds were included with each species. All incubations were performed singularly for each test compound. Each compound was incubated for 0, 5, 15, 30 and 45 min. The control (minus NADPH) was incubated for 45 min only. The reactions were stopped by transferring incubate into acetonitrile at the appropriate time points, in a 1:3 ratio. The termination plates are centrifuged at 3,000 rpm for 20 min at 4° C. to precipitate the protein. Following protein precipitation, the sample supernatants were combined in cassettes of up to 4 compounds, internal standard added, and samples analysed by LC-MS/MS. From a plot of ln peak area ratio (compound peak area/internal standard peak area) against time, the gradient of the line was determined. Subsequently, half-life (t1/2) and intrinsic clearance (CLint) were calculated.

RSV A2 = assay: RSV plaque reduction assay; assay type: cell-based, respiratory syncytial virus (RSV); conditions: human respiratory syncytial virus, HepG2, Hep-G2 cells, mean of at least two experiments
Method: (§1) Compounds were subjected to RSV plaque reduction assays according to the following protocol. Plaque EC50 and cell toxicity CC50 values are a mean of at least two experiments and figures are rounded to whole units.
Hep-G2 cells (ECACC, 85011430) were passaged in flasks and seeded in 24-well plates in DMEM containing antibiotics and supplemented with 10% FBS. During inoculation and subsequent incubation, cells were cultured in DMEM containing 2% FBS. 100 plaque forming unit/well of RSV (RSV A2 ECACC, 0709161v) was mixed with eight serial dilutions of compound. Subsequently, 100 μL of the virus/compound mixtures was added to confluent Hep-G2 cell monolayers. The cells and virus/compound mixtures were incubated at 37° C. in a humidified 5% CO2 incubator for 2 h prior to removal of the inoculum and addition of 1 mL of overlay (DMEM containing 2% FBS and 0.8% CMC) containing compound dilutions. The cells and were incubated at 37° C. in a humidified 5% CO2 incubator for 2 days.
Cells were washed with PBS before adding 75/25% […] EtOH/MeOH, for 3 min. Fixative was removed and plates were washed with PBS. A pre-titrated amount of the primary antibody was added in 200 μL PBS/2% milk powder, and plates incubated for 90 min at 37° C. The plates were washed 3 times with PBS/0.05% Tween20 before addition of rabbit anti-goat horse radish peroxidase in 200 μL PBS/2% milk powder, and incubated for 1 h at 37° C. Following three wash steps with PBS/0.05% Tween20, 200 μL ready-to-use TrueBlue was added and plates were incubated at rt for 10-15 min before washing with water. After removal of water, plates were air-dried in the dark.
(§2) Plates were scanned and analysed using the Immunospot S6 Macro analyser, which is equipped with BioSpot analysis software for counting immunostained plaques (virospots). Plaque counts were used to calculate % c infection relative to the mean of the plaque count in the virus control wells for RSV. The EC50 value was calculated as 50% reduction in signal, respectively, by interpolation of inhibition curves fitted with a 4-parameter nonlinear regression with a variable slope in Dotmatics. Plaque EC50 and cell toxicity CC50 values are a mean of at least two experiments and figures are rounded to whole units.

Cell cytotoxicity (CC50) = assay type: cell-based; conditions: human; mean of at least two experiments
Excerpt: as §1, §2

Row | Structure (SMILES) | half-life at 1 μM (in vitro; dog) | half-life at 1 μM (in vitro; human) | half-life at 1 μM (in vitro; rat) | EC50 (RSV A2) | CC50 (Cell cytotoxicity (CC50))
1 | CC(C)Nc1ccc(-c2nn3cccnc3c2C(=O)N[C@H]2N=C(c3ccccc3)c3cccc(F)c3NC2=O)cn1 [Example 74, N-[(3S)-9-Fluoro-2-oxo-5-phenyl-1,3-dihydro-1,4-benzodiazepin-3-yl]-2-[6-(propan-2-ylamino)pyridin-3-yl]pyrazolo[1,5-a]pyrimidine-3-carboxamide] | 43.5 min | 264 min | 70.4 min | 28 nM | > 25 µM
2 | Cc1cncc(-c2nn3cccnc3c2C(=O)N[C@H]2N=C(c3ccccc3)c3cccc(F)c3NC2=O)c1 [Example 64, N-[(3S)-9-fluoro-2-oxo-5-phenyl-1,3-dihydro-1,4-benzodiazepin-3-yl]-2-(5-methylpyridin-3-yl)pyrazolo[1,5-a]pyrimidine-3-carboxamide] | 215 min | 1450 min | 102 min | 100 nM | > 18.8 µM
3 | O=C(N[C@H]1N=C(c2ccccc2)c2cccc(F)c2NC1=O)c1c(-c2ccc(F)cc2F)nc2cccnn12 [Example 89, 2-(2,4-Difluorophenyl)-N-[(3S)-9-fluoro-2-oxo-5-phenyl-1,3-dihydro-1,4-benzodiazepin-3-yl]imidazo[1,2-b]pyridazine-3-carboxamide] | 1080 min | 737 min | 186 min | 19 nM | > 25 µM
4 | O=C(N[C@H]1N=C(c2ccccc2)c2cccc(F)c2NC1=O)c1c(-c2cccc(F)c2F)nn2cccnc12 [Example 42, 2-(2,3-Difluorophenyl)-N-[(3S)-9-fluoro-2-oxo-5-phenyl-1,3-dihydro-1,4-benzodiazepin-3-yl]pyrazolo[1,5-a]pyrimidine-3-carboxamide] | 730 min | > 140 min | 170 min | 41 nM | > 14 µM
5 | Cc1ccc(-c2nn3cccnc3c2C(=O)N[C@H]2N=C(c3ccccc3)c3ccccc3NC2=O)c(F)n1 [Example 85, 2-(2-Fluoro-6-methylpyridin-3-yl)-N-[(3S)-2-oxo-5-phenyl-1,3-dihydro-1,4-benzodiazepin-3-yl]pyrazolo[1,5-a]pyrimidine-3-carboxamide] | 105 min | > 140 min | 198 min | 57 nM | > 25 µM
6 | Cc1ccnc2c(C(=O)N[C@H]3N=C(c4ccccc4)c4ccccc4NC3=O)c(-c3ccccc3F)nn12 [Example 37, 2-(2-Fluorophenyl)-7-methyl-N-[(3S)-2-oxo-5-phenyl-1,3-dihydro-1,4-benzodiazepin-3-yl]pyrazolo[1,5-a]pyrimidine-3-carboxamide] | 117 min | > 140 min | 50.5 min | 39 nM | > 25 µM
7 | COc1ccc2nc(-c3ccccc3)c(C(=O)N[C@H]3N=C(c4ccccc4)c4cccc(F)c4NC3=O)n2n1 [Example 113, N-[(3S)-9-fluoro-2-oxo-5-phenyl-1,3-dihydro-1,4-benzodiazepin-3-yl]-6-methoxy-2-phenylimidazo[1,2-b]pyridazine-3-carboxamide] | 241 min | 518 min | 87.4 min | 41 nM | > 25 µM
8 | COc1ccc2nc(-c3ccccc3)c(C(=O)N[C@H]3N=C(c4ccccc4)c4ccccc4NC3=O)n2n1 [Example 111, 6-Methoxy-N-[(3S)-2-oxo-5-phenyl-1,3-dihydro-1,4-benzodiazepin-3-yl]-2-phenylimidazo[1,2-b]pyridazine-3-carboxamide] | – | – | – | 48 nM | > 25 µM
9 | COc1ccc(-c2nn3cccnc3c2C(=O)N[C@H]2N=C(c3ccccc3)c3cccc(F)c3NC2=O)cn1 [Example 76, N-[(3S)-9-fluoro-2-oxo-5-phenyl-1,3-dihydro-1,4-benzodiazepin-3-yl]-2-(6-methoxypyridin-3-yl)pyrazolo[1,5-a]pyrimidine-3-carboxamide] | – | – | – | 93 nM | > 25 µM
10 | COCCc1ccc(-c2nn3cccnc3c2C(=O)N[C@H]2N=C(c3ccccc3)c3cccc(F)c3NC2=O)cn1 [Example 51, 2-[6-(2-methoxyethyl)pyridin-3-yl]-N-[(3S)-9-fluoro-2-oxo-5-phenyl-1,3-dihydro-1,4-benzodiazepin-3-yl]pyrazolo[1,5-a]pyrimidine-3-carboxamide] | – | – | – | 92 nM | > 25 µM
11 | COCCOc1ccc2nc(-c3ccccc3F)c(C(=O)N[C@H]3N=C(c4ccccc4)c4cccc(F)c4NC3=O)n2n1 [Example 110, N-[(3S)-9-Fluoro-2-oxo-5-phenyl-1,3-dihydro-1,4-benzodiazepin-3-yl]-2-(2-fluorophenyl)-6-(2-methoxyethoxy)imidazo[1,2-b]pyridazine-3-carboxamide] | – | – | – | 73 nM | > 25 µM
12 | Cc1ccc2nc(-c3ccc(N4CCOCC4)nc3)c(C(=O)N[C@H]3N=C(c4ccccc4)c4ccccc4NC3=O)n2n1 [Example 104, 6-Methyl-2-(6-morpholin-4-ylpyridin-3-yl)-N-[(3S)-2-oxo-5-phenyl-1,3-dihydro-1,4-benzodiazepin-3-yl]imidazo[1,2-b]pyridazine-3-carboxamide] | – | – | – | 29 nM | > 25 µM
13 | COc1nc(C)ccc1-c1nn2cccnc2c1C(=O)N[C@H]1N=C(c2ccccc2)c2ccccc2NC1=O [Example 86, 2-(2-Methoxy-6-methylpyridin-3-yl)-N-[(3S)-2-oxo-5-phenyl-1,3-dihydro-1,4-benzodiazepin-3-yl]pyrazolo[1,5-a]pyrimidine-3-carboxamide] | – | – | – | 119 nM | > 25 µM
14 | Cn1ccc2cc(-c3nn4cccnc4c3C(=O)N[C@H]3N=C(c4ccccc4)c4cccc(F)c4NC3=O)cnc21 [Example 71, N-[(3S)-9-fluoro-2-oxo-5-phenyl-1,3-dihydro-1,4-benzodiazepin-3-yl]-2-(1-methylpyrrolo[2,3-b]pyridin-5-yl)pyrazolo[1,5-a]pyrimidine-3-carboxamide] | – | – | – | 101 nM | > 25 µM
15 | Cc1ccc2nc(-c3cncc(C(F)(F)F)c3)c(C(=O)N[C@H]3N=C(c4ccccc4)c4cccc(F)c4NC3=O)n2n1 [Example 47, N-[(3S)-9-fluoro-2-oxo-5-phenyl-1,3-dihydro-1,4-benzodiazepin-3-yl]-6-methyl-2-[5-(trifluoromethyl)pyridin-3-yl]imidazo[1,2-b]pyridazine-3-carboxamide] | – | – | – | 101 nM | > 25 µM
16 | C[C@H]1COCCN1c1ccc(-c2nn3cccnc3c2C(=O)N[C@H]2N=C(c3ccccc3)c3ccccc3NC2=O)cn1 (single isomer, unassigned) [Example 124, 2-(6-[(3S*)-3-methylmorpholin-4-yl]pyridin-3-yl)-N-[(3S)-2-oxo-5-phenyl-2,3-dihydro-1H-1,4-benzodiazepin-3-yl]pyrazolo[1,5-a]pyrimidine-3-carboxamide] | – | – | – | 83 nM | > 25 µM
17 | [2H]C([2H])([2H])Oc1ccc2nc(-c3ccc(CC)nc3)c(C(=O)N[C@H]3N=C(c4ccccc4)c4cccc(F)c4NC3=O)n2n1 [Example 123, 2-(6-Ethylpyridin-3-yl)-N-[(3S)-9-fluoro-2-oxo-5-phenyl-2,3-dihydro-1H-1,4-benzodiazepin-3-yl]-6-(^2H3)methoxyimidazo[1,2-b]pyridazine-3-carboxamide] | – | – | – | 45 nM | > 25 µM
